In ChEMBL document CHEMBL4011587, “Design, synthesis and evaluation of novel ferulic acid-O-alkylamine derivatives as potential multifunctional agents for the treatment of Alzheimer's disease” (Eur J Med Chem, 2017):

How the values were obtained:
[1] = Inhibition of BuChE in rat serum using butyrylthiocholine chloride as substrate measured after 15 mins by Ellman's method; settings: 0.25 h
[2] = Selectivity index, ratio of IC50 for electric eel AChE to IC50 for equine serum BuChE
Acetylcholinesterase [3] = molecular target: T1, Acetylcholinesterase (Electrophorus electricus, UniProt O42275); experiment: Inhibition of electric eel AChE using acetylthiocholine chloride as substrate measured after 15 mins by Ellman's method; format: ADME
T1 sequence (O42275 whole entry): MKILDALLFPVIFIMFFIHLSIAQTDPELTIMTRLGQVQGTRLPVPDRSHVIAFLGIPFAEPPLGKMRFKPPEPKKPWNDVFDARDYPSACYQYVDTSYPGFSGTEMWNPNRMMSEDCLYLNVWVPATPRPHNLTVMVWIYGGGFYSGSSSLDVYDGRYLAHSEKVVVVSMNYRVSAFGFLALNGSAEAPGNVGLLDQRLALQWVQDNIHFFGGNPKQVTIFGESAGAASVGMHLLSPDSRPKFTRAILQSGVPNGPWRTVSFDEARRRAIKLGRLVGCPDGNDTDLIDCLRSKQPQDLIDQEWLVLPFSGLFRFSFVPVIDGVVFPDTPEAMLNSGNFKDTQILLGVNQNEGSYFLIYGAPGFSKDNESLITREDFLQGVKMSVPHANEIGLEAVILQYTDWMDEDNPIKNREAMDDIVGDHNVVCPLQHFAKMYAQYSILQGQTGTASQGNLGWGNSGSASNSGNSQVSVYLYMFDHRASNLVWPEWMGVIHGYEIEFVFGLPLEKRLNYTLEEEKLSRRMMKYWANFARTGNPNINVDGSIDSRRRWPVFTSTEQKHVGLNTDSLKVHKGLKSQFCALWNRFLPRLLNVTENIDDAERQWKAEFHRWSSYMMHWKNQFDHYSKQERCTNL

Cholinesterase = Cholinesterase (Equus caballus, UniProt P81908); experiment: Inhibition of equine serum BuChE using butyrylthiocholine chloride as substrate measured after 15 mins by Ellman's method
Chain of Cholinesterase (P81908 whole entry): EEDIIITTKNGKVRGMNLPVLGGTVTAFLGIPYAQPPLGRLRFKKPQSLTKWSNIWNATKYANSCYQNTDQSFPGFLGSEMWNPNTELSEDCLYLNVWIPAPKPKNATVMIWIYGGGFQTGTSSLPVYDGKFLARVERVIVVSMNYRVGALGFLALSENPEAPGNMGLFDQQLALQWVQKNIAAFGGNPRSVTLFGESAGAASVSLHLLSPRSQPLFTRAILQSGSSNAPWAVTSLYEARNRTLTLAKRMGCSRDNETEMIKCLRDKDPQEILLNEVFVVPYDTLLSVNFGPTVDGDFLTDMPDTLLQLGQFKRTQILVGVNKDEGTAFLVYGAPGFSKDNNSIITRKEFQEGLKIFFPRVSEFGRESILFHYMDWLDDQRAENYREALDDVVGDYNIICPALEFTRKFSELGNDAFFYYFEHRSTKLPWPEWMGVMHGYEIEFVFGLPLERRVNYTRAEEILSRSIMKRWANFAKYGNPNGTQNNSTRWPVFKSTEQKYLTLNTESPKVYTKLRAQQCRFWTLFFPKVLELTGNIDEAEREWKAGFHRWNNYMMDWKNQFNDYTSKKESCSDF

[4] = Antioxidant activity assessed as inhibition of AAPH-induced peroxyl radical generation measured as trolox equivalent at 1 to 10 uM preincubated for 15 mins followed by AAPH addition measured every minute for 90 mins by ORAC-FL assay; format: functional
Acetylcholinesterase [5] = molecular target: T2, Acetylcholinesterase (Rattus norvegicus, UniProt P37136); experiment: Inhibition of AChE in rat cortex homogenates using acetylthiocholine chloride as substrate measured after 15 mins by Ellman's method; format: ADME
T2 sequence (P37136 whole entry): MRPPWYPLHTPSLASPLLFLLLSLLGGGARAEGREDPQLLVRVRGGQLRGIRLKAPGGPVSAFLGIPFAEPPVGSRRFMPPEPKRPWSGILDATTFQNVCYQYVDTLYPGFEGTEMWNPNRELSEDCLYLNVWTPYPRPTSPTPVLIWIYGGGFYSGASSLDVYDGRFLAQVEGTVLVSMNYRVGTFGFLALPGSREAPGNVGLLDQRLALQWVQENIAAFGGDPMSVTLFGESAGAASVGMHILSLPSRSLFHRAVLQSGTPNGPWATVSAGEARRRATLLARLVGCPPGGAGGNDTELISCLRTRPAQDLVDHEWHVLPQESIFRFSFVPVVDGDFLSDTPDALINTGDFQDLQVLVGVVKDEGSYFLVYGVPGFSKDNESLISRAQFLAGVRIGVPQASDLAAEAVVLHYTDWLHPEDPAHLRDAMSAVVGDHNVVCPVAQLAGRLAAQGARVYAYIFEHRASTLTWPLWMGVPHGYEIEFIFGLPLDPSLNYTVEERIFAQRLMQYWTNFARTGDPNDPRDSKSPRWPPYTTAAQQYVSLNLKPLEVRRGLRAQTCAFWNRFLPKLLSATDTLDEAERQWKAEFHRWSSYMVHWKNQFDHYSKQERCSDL

[6] = molecular target: Amyloid-beta precursor protein (Homo sapiens) (UniProt P05067); experiment: Inhibition of amyloid beta (1 to 42) (unknown origin) self-aggregation at 25 uM after 24 hrs by thioflavin-T fluorescence assay relative to control
Chain of Amyloid-beta precursor protein (Homo sapiens) (P05067 whole entry): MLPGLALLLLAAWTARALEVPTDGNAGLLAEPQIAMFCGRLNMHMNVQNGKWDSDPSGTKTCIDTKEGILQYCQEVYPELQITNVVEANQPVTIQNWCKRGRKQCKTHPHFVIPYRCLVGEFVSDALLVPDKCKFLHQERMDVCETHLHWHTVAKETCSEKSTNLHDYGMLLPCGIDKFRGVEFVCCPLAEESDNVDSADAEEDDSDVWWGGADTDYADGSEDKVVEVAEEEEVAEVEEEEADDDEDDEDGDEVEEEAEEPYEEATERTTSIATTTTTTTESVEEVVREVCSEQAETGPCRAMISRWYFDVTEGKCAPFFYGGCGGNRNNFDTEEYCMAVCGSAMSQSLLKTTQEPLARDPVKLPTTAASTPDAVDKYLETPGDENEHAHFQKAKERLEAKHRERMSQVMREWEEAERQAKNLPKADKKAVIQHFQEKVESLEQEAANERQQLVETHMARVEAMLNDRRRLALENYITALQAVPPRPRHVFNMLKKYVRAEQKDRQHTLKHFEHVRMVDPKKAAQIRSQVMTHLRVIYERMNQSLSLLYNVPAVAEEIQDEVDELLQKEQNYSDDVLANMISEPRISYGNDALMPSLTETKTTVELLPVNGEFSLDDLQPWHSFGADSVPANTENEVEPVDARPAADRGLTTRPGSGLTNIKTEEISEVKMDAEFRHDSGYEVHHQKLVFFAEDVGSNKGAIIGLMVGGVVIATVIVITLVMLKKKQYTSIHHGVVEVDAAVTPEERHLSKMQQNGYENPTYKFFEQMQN

Acetylcholinesterase [7] = molecular target: T2, Acetylcholinesterase; experiment: Inhibition of AChE in rat cortex homogenates at 25 umol/l using acetylthiocholine chloride as substrate measured after 15 mins by Ellman's method; settings: 0.25 h
Acetylcholinesterase [8] = molecular target: T1, Acetylcholinesterase; experiment: Inhibition of electric eel AChE at 25 uM using acetylthiocholine chloride as substrate measured after 15 mins by Ellman's method relative to control; settings: 0.25 h

COc1cc(/C=C/C(=O)N2CCC(Cc3ccccc3)CC2)ccc1OCCCCN1CCN(c2ccccn2)CC1
IC50 [1]: 48.6 µM
Ratio IC50 [2]: 6.9
IC50 (Acetylcholinesterase [3]): 11.2 µM
IC50 (Cholinesterase): 1.62 µM
Activity [4]: 0.4 equiv
IC50 (Acetylcholinesterase [5]): 67.2 µM
inhibition [6]: 49.8%

COc1cc(/C=C/C(=O)N2CCC(Cc3ccccc3)CC2)ccc1OCCCCN1CCN(c2ncccn2)CC1
IC50 [1]: 56.2 µM
Ratio IC50 [2]: 7.9
IC50 (Acetylcholinesterase [3]): 12.4 µM
IC50 (Cholinesterase): 1.56 µM
Activity [4]: 0.43 equiv
IC50 (Acetylcholinesterase [5]): 44.3 µM
inhibition [6]: 46%

COc1cc(/C=C/C(=O)N2CCC(Cc3ccccc3)CC2)ccc1OCCCCCCN1CCN(Cc2ccccc2)CC1
IC50 [1]: 50.6 µM
Ratio IC50 [2]: 2.2
IC50 (Acetylcholinesterase [3]): 4.83 µM
IC50 (Cholinesterase): 2.2 µM
Activity [4]: 0.73 equiv
IC50 (Acetylcholinesterase [5]): 73.2 µM
inhibition [6]: 51.1%

COc1cc(/C=C/C(=O)N2CCC(Cc3ccccc3)CC2)ccc1OCCCN1CCN(Cc2ccccc2)CC1
IC50 [1]: 41.2 µM
Ratio IC50 [2]: 6.9
IC50 (Acetylcholinesterase [3]): 8.4 µM
IC50 (Cholinesterase): 1.22 µM
Activity [4]: 0.7 equiv
IC50 (Acetylcholinesterase [5]): 65 µM
inhibition [6]: 50.3%

COc1cc(/C=C/C(=O)N2CCC(Cc3ccccc3)CC2)ccc1OCCCCCN1CCN(c2ccccn2)CC1
IC50 [1]: 57.3 µM
Ratio IC50 [2]: 6
IC50 (Acetylcholinesterase [3]): 9.12 µM
IC50 (Cholinesterase): 1.52 µM
Activity [4]: 0.45 equiv
IC50 (Acetylcholinesterase [5]): 58.5 µM
inhibition [6]: 51.5%

COc1cc(/C=C/C(=O)N2CCC(Cc3ccccc3)CC2)ccc1OCCCCCN1CCN(c2ncccn2)CC1
IC50 [1]: 45.3 µM
Ratio IC50 [2]: 2.5
IC50 (Acetylcholinesterase [3]): 5.81 µM
IC50 (Cholinesterase): 2.34 µM
Activity [4]: 0.46 equiv
IC50 (Acetylcholinesterase [5]): 30.6 µM
inhibition [6]: 39.7%

COc1cc(/C=C/C(=O)N2CCC(Cc3ccccc3)CC2)ccc1OCCCN1CCc2ccccc2C1
IC50 [1]: 2.28 µM
Ratio IC50 [2]: 18.4
IC50 (Acetylcholinesterase [3]): 2.21 µM
IC50 (Cholinesterase): 0.12 µM
Activity [4]: 0.51 equiv
IC50 (Acetylcholinesterase [5]): 1.89 µM
inhibition [6]: 55.6%

COc1cc(/C=C/C(=O)N2CCC(Cc3ccccc3)CC2)ccc1OCCCCCCN1CCN(c2ncccn2)CC1
IC50 [1]: 68.6 µM
Ratio IC50 [2]: 19.7
inhibition at 25 µM (Acetylcholinesterase [7]): 15.2%
IC50 (Acetylcholinesterase [3]): 13.4 µM
IC50 (Cholinesterase): 0.68 µM
Activity [4]: 0.51 equiv
inhibition [6]: 42%

COc1cc(/C=C/C(=O)O)ccc1O [FERULATE]
inhibition at 25 µM (Acetylcholinesterase [8]): < 5%
Activity [4]: 1.1 equiv
